Our source for the IC50 values is US9999616B2 (ZENITH EPIGENETICS LTD., priority 2013, dated 2018).

For the assay, the target named is Brd4 bromodomain 1 (BRD4(1)) (Homo sapiens, UniProt O60885). Kind of assay: Inhibition of tetra-acetylated histone H4 binding to Brd4 bromodomain 1, measured by FRET (HTRF). Also on record: made in house; host or cells: E. coli BL21(DE3). The following applies: 2 h at room temperature. The procedure:
Proteins were cloned and overexpressed with a N-terminal 6×His tag, then purified by nickel affinity followed by size exclusion chromatography. Briefly, E. coli BL21(DE3) cells were transformed with a recombinant expression vector encoding N-terminally Nickel affinity tagged bromodomains from Brd2, Brd3, Brd4. Cell cultures were incubated at 37° C. with shaking to the appropriate density and induced overnight with IPTG. The supernatant of lysed cells was loaded onto Ni-IDA column for purification. Eluted protein was pooled, concentrated and further purified by size exclusion chromatography. Fractions representing monomeric protein were pooled, concentrated, aliquoted, and frozen at −80° C. for use in subsequent experiments.
Binding of tetra-acetylated histone H4 and BET bromodomains was confirmed by a Homogenous Time Resolved Fluorescence Resonance Energy Transfer (HTRF®) method. N-terminally His-tagged bromodomains (200 nM) and biotinylated tetra-acetylated histone H4 peptide (25-50 nM, Millipore) were incubated in the presence of Europium Cryptate-labeled streptavidin (Cisbio Cat. #610SAKLB) and XL665-labeled monoclonal anti-His antibody (Cisbio Cat. #61HISXLB) in a white 96 well microtiter plate (Greiner). For inhibition assays, serially diluted test compound was added to these reactions in a 0.2% final concentration of DMSO. Duplicate wells were used for each concentration tested. Final buffer concentrations were 30 mM HEPES pH 7.4, 30 mM NaCl, 0.3 mM CHAPS, 20 mM phosphate pH 7.0, 320 mM KF, 0.08% BSA. After a 2 h incubation at room temperature, fluorescence was measured at 665 and 620 nm with a SynergyH4 plate reader (Biotek). The binding inhibitory activity was shown by a decrease in 665 nm relative to 620 nm fluorescence. IC50 values were determined from a dose response curve.
In general terms: TR-FRET usually uses a lanthanide donor and a delayed reading to cut background.

What is called IC50 is the concentration needed to halve the response being measured.

Turning to `Cc1noc(C)c1-c1nc(-c2c(C)noc2C)c2ccccc2n1` [Example Compound 3, 4,4′-(quinazoline-2,4-diyl)bis (3,5-dimethyl isoxazole)], the concentration for half-maximal inhibition (IC50) lay within 3 to 30 µM.

With `Cc1noc(C)c1-c1cn2ccnc2c(-c2c(C)noc2C)n1` [Example Compound 10, 4,4′-(imidazo [1,2-a]pyrazine-6,8-diyl)bis(3,5-dimethylisoxazole)], the IC50 fell in the range of 3 to 30 µM.

On to `Cc1noc(C)c1-c1cc(-c2c(C)nn(C)c2C)cc2[nH]cnc12` [Example Compound 14, 3,5-dimethyl-4-(6-(1,3,5-trimethyl-1H-pyrazol-4-yl)-1H-benzo[d]imidazol-4-yl)isoxazole], for which the concentration for half-maximal inhibition (IC50) fell in the range of 3 to 30 µM.

Regarding `Cc1noc(C)c1-c1cc(-c2c(C)noc2C)c2ncnn2c1` [Example Compound 17, 4,4′-([1,2,4]triazolo [1,5-a]pyridine-6,8-diyl)bis (3,5-dimethyl-isoxazole)], the IC50 was 3 to 30 µM.

In the case of `Cc1noc(C)c1-c1cc(-c2c(C)noc2C)c2nc(NCc3ccccc3)[nH]c2c1` [Example Compound 31, N-benzyl-4,6-bis(3,5-dimethylisoxazol-4-yl)-1H-benzo[d] imidazol-2-amine], the IC50 was at most 0.3 µM.

Take `Cc1noc(C)c1-c1cc(Nc2cnccn2)c2nc[nH]c2c1` [Example Compound 62, 6-(3,5 dimethyl-isoxazol-4-yl)-N-(pyrazin-2-yl)-1H-benzo[d] imidazol-4-amine]: the IC50 was in the range of 0.3 to 3 µM.

As to `Cc1nc2c(Nc3ncccc3C)cc(-c3c(C)noc3C)cc2[nH]1` [Example Compound 63, 6-(3,5-dimethyl-isoxazol-4-yl)-2-methyl-N-(3-methylpyridin-2-yl)-1H-benzo[d] imidazol-4-amine], the IC50 lay in the range of 0.3 to 3 µM.

For the compound `Cc1noc(C)c1-c1cc(-c2c(C)noc2C)c2nc(NCc3cccnc3)[nH]c2c1` [Example Compound 65, 4,6-bis(3,5-dimethyl-isoxazol-4-yl)-N-(pyridin-3-ylmethyl)-1H-benzo[d] imidazol-2-amine], the IC50 is at most 0.3 µM.

`Cc1nc2c(-c3ccccc3C#N)cc(-c3c(C)noc3C)cc2[nH]1` [Example Compound 71, 2-(6-(3,5-dimethyl-isoxazol-4-yl)-2-methyl-1H-benzo[d]imidazol-4-yl)benzonitrile]: the IC50 was 3 to 30 µM.

With `Cc1nc2c(-c3cc(C(=O)O)ccc3C)cc(-c3c(C)noc3C)cc2[nH]1` [Example Compound 75, 3-(6-(3,5-dimethyl-isoxazol-4-yl)-2-methyl-1H-benzo[d]imidazol-4-yl)-4-methyl benzoic acid], the IC50 lay in the range of 0.3 to 3 µM.

For the compound `Cc1nc2c(-c3ccccc3C(F)(F)F)cc(-c3c(C)noc3C)cc2[nH]1` [Example Compound 78, 3,5-dimethyl-4-(2-methyl-4-(2-(trifluoromethyl)phenyl)-1H-benzo[d]imidazol-6-yl)isoxazole], the IC50 was 0.3 to 3 µM.

In the case of `Cc1nc2c(-c3cccnc3N)cc(-c3c(C)noc3C)cc2[nH]1` [Example Compound 82, 3-(6-(3,5-dimethyl-isoxazol-4-yl)-2-methyl-1H-benzo[d]imidazol-4-yl)pyridin-2-amine], the IC50 fell in the range of 0.3 to 3 µM.

On to `Cc1nc2c(-c3cccc(F)c3C#N)cc(-c3c(C)noc3C)cc2[nH]1` [Example Compound 83, 2-(6-(3,5-dimethyl-isoxazol-4-yl)-2-methyl-1H-benzo[d]imidazol-4-yl)-6-fluoro-benzonitrile], for which the IC50 is 0.3 to 3 µM.

Turning to `Cc1ccc(-c2cc(-c3c(C)noc3C)cc3[nH]c(C)nc23)nn1` [Example Compound 86, 3,5-dimethyl-4-(2-methyl-4-(6-methyl-pyridazin-3-yl)-1H-benzo[d]imidazol-6-yl)isoxazole], the IC50 fell in the range of 0.3 to 3 µM.

As for `Cc1nc2c(-c3ccc(Cl)cc3C)cc(-c3c(C)noc3C)cc2[nH]1` [Example Compound 90, 4-(4-(4-chloro-2-methyl-phenyl)-2-methyl-1H-benzo[d]imidazol-6-yl)-3,5-dimethyl isoxazole], the half-maximal inhibitory concentration (IC50) lay in the range of 0.3 to 3 µM.

Take `Cc1nc2c(-c3cccc(OC(F)(F)F)c3)cc(-c3c(C)noc3C)cc2[nH]1` [Example Compound 96, 3,5-dimethyl-4-(2-methyl-4-(3-(trifluoro-methoxy)phenyl)-1H-benzo[d]imidazol-6-yl)isoxazole]: the IC50 is at most 0.3 µM.

`Cc1nc2cc(-c3c(C)noc3C)cc(-c3c(C)noc3C)c2o1` [Example Compound 101, 5,7-bis(3,5-dimethylisoxazol-4-yl)-2-methylbenzo[d]oxazole]: the IC50 is at most 0.3 µM.

Consider `COc1ccccc1S(=O)(=O)Nc1cc(-c2c(C)noc2C)cc2[nH]cnc12` [Example Compound 102, N-(6-(3,5-dimethylisoxazol-4-yl)-1H-benzo[d]imidazol-4-yl)-2-methoxybenzenesulfonamide], for which the IC50 was in the range of 0.3 to 3 µM.

Turning to `Cc1nc2c(-c3cccc4cccnc34)cc(-c3c(C)noc3C)cc2[nH]1` [Example Compound 111, 3,5-dimethyl-4-(2-methyl-4-(quinolin-8-yl)-1H-benzo[d]imidazol-6-yl)isoxazole], the IC50 fell in the range of 0.3 to 3 µM.

`Cc1nc2c(-c3ncsc3C)cc(-c3c(C)noc3C)cc2[nH]1` [Example Compound 113, 3,5-dimethyl-4-(2-methyl-4-(5-methyl-thiazol-4-yl)-1H-benzo[d]imidazol-6-yl)isoxazole]: the half-maximal inhibitory concentration (IC50) lay in the range of 0.3 to 3 µM.

As for `Cc1nc2c(-c3cn(C)nc3C(F)(F)F)cc(-c3c(C)noc3C)cc2[nH]1` [Example Compound 115, 3,5-dimethyl-4-(2-methyl-4-(1-methyl-3-(trifluoro-methyl)-1H-pyrazol-4-yl)-1H-benzo[d]imidazol-6-yl)isoxazole], the IC50 was in the range of 0.3 to 3 µM.

Consider `Cc1noc(C)c1-c1cc(-c2c(C)noc2C)c2nc(N(C)C)[nH]c2c1` [Example Compound 116, 4,6-bis(3,5-dimethyl-isoxazol-4-yl)-N,N-dimethyl-1H-benzo[d] imidazol-2-amine], for which the IC50 lay within 0.3 to 3 µM.

On to `Cc1nc2c(N3CCCCC3=O)cc(-c3c(C)noc3C)cc2[nH]1` [Example Compound 122, 1-(6-(3,5-dimethylisoxazol-4-yl)-2-methyl-1H-benzo[d]imidazol-4-yl)piperidin-2-one], for which the IC50 fell in the range of 0.3 to 3 µM.

Turning to `Cc1nc2c(-c3cn(C)nc3C)cc(-c3cn(C)nc3C)cc2[nH]1` [Example Compound 133, 4,6-bis(1,3-dimethyl-1H-pyrazol-4-yl)-2-methyl-1H-benzo[d] imidazole], the concentration for half-maximal inhibition (IC50) lay within 3 to 30 µM.

Turning to `Cc1nc2c(-c3ccnn3C)cc(-c3ccnn3C)cc2[nH]1` [Example Compound 134, 2-methyl-4,6-bis(1-methyl-1H-pyrazol-5-yl)-1H-benzo[d] imidazole], the IC50 is 0.3 to 3 µM.

With `Cc1noc(C)c1-c1cc(-c2c(C)noc2C)c2n[nH]c(=O)n2c1` [Example Compound 149, 6,8-bis(3,5-dimethyl-isoxazol-4-yl)-[1,2,4] triazolo[4,3-a] pyridin-3(2H)-one], the IC50 was in the range of 3 to 30 µM.

As to `Cc1noc(C)c1-c1cc(-c2c(C)noc2C)c2nccnc2c1` [Example Compound 159, 4,4′-(quinoxaline-5,7-diyl)bis(3,5-dimethylisoxazole)], the IC50 lay in the range of 0.3 to 3 µM.

As to `Cc1nc2c(-c3c(C)cnn3C)cc(-c3c(C)cnn3C)cc2[nH]1` [Example Compound 167, 4,6-bis(1,4-dimethyl-1H-pyrazol-5-yl)-2-methyl-1H-benzo[d] imidazole], the IC50 lay within 0.3 to 3 µM.

As for `Cc1nc2c(-c3sc(C)nc3C)cc(-c3sc(C)nc3C)cc2[nH]1` [Example Compound 168, 5,5′-(2-methyl-1H-benzo[d]imidazole-4,6-diyl) bis(2,4-dimethylthiazole)], the IC50 lay in the range of 3 to 30 µM.

For the compound `Cc1nc2c(-c3c(C)noc3C)cc(-c3c(C)noc3C)nc2[nH]1` [Example Compound 176, 4,4′-(2-methyl-3H-imidazo[4,5-b]pyridine-5,7-diyl)bis(3,5-dimethylisoxazole)], the IC50 fell in the range of 0.3 to 3 µM.

Take `CSc1nc2cc(-c3c(C)noc3C)cc(-c3c(C)nn(C)c3C)c2n1C` [Example Compound 191, 3,5-dimethyl-4-(1-methyl-2-(methylthio)-7-(1,3,5-trimethyl-1H-pyrazol-4-yl)-1H-benzo[d]imidazol-5-yl)isoxazole]: the IC50 was at most 0.3 µM.

For `Cc1ccc(C#N)cc1-c1cc(-c2c(C)noc2C)cc2[nH]c(N3CCOCC3)nc12` [Example Compound 193, 3-(6-(3,5-dimethyl-isoxazol-4-yl)-2-morpholino-1H-benzo[d]imidazol-4-yl)-4-methyl benzonitrile], the IC50 is at most 0.3 µM.

As for `Cc1ccncc1-c1cc(-c2c(C)noc2C)cc2[nH]c(N3CCN(C)CC3)nc12` [Example Compound 199, 3,5-dimethyl-4-(2-(4-methylpiperazin-1-yl)-4-(4-methylpyridin-3-yl)-1H-benzo[d]imidazol-6-yl)isoxazole], the IC50 was in the range of 0.3 to 3 µM.

Take `Cc1noc(C)c1-c1cc(-c2c(C)nn(C)c2C)c2nc(N3CCC3)[nH]c2c1` [Example Compound 217]: the IC50 was at most 0.3 µM.
